Values joined by “and” are separate entries in the source; they are usually repeats but may differ in a detail not shown here. Equal values may be shown once. Marks after values point to notes of the source that are not given here.
Experiments:
[1] = test system: mongrel male mice; experiment: Passive cutaneous anaphylaxis reaction; type: in vivo; conditions: PCA, oral 3 days
Protocol: Experiments were carried out on mongrel male mice with initial body mass 22-24 g. Each group included 10 animals. Sensibilization of animals was accomplished by intradermal injection of 20-30 µl of the serum of mice obtained from preliminaryly immunized animals comprising reagent antibodies against chicken ovalbumin (OVA). […] In 48 hours after sensibilzation an anaphylaxis-provoking OVA dose (1 mg and 0,2 ml Evans blue in 0.2 ml normal saline) were intravenously injected to mice. Passive cutaneous anaphylaxis reaction intensity (PCA) was determined in 30 minutes by the size (area) of a blue spot on the internal skin surface in the site of reagent anibodies' administration. Spot size was measured in two mutually perpendicular directions and the result was expressed in mm^2.

[2] = test system: hepatic P-450 cytochrome system; experiment: Hexenal sleep duration in mice; type: in vivo
How it was run: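 Male mice (several inbred/hybrid lines, 18-20 g, n=10) and mongrel male guinea pigs (250-300 g, n=24) given compounds orally in drinking water for three days at 50 and 500 µg/kg. Hexenal given 24 h after last dose ([…]); sleep duration recorded in minutes.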

[3] = test system: Lewis pulmonary carcinoma (LLC); experiment: Lewis pulmonary carcinoma spontaneous metastasizing, oral administration; type: in vivo; conditions: BDF1 female mice with LLC, oral 24 days; for Mean number of metastases: day 25
Protocol: Each group included 15 animals. 0.3 ml of LLC tumor tissue suspension was intramuscularly injected to mice. Henks solution was used as a solvent. […] Moscow (1992) 13 pp.]. […]

[4] = test system: Salmonella spp.; experiment: Resistance of mice to Salmonella spp. infection; type: in vivo; conditions: test compounds 500 µg/kg orally; for MLT: mean lifetime
Protocol: Effect of the compounds of general formula (I) on change in average lifetime of experimental animals infected with Salmonella spp.
Experiments were carried out on mongrel white mice of both sexes weighing 18-22 g. Compounds III, XLIV and the reference drug sodium nucleinate were administered orally for 3 days (a total of 6 times) prior and post infection (dosage regimen -3, -2, -1, 0, 1, 2, 3, where 0 is infection day). A 24-hour Salmonella spp. culture grown on Hottinger agar, was used for infecting. Normal saline solution was used to prepare cellular suspension. Suspension of Salmonella spp. cells was administered subcutaneously at a dose 5 x 10^8 cells per a mouse in 0.5 ml.

[5] = test system: NK-cells; experiment: Activity of NK-cells after swimming stress (H^3-uridine release from YAC-1); type: in vivo, Balb male mice; conditions: 50 µg/kg orally four times
Protocol: (§1) Experiments were carried out on inbred Balb male mice with initial body mass 16-18 g. Each group included 12 animals. The model of swimming in warm water for 20 minutes was used to develop emotional-locomotory stress in animals. Stress development was estimated by the activity of natural killer lymphocytes (NK cells) and by functioning of the interferon system [Sukhikh T.G., Nossik N.N., Parshina O.V., Van'ko L.V., Meerson F.Z., Yershov F.I. Relationship between the natural cellular cytotoxicity system and the interferon system in immobilization stress. Bulletin of Experimental Biology (1984), ? , pp.593-595].
Activity of NK-cells was determined in the test of H^3-uridine release from the labelled target cells YAC-1 (mouse cellular lymphoma maintained by passages in vitro in suspension in the RPMI-1640 medium with 10% fetal serum). H^3-uridine (3-5 µC/cells/ml) was introduced into cellular suspension at concentration 1 miilion cells/ml on the 60th minute while shaking with 15 minute inerval and subsequent washing with the medium.
Splenocytes of mice which were obtained using the published method [Nossik N.N., Bopegamage S.A., Yershov F.I. Properties of interferons produced by different cell populations. Acta microbiologica Hungarica (1988), Vol. 35, Iss. 4, pp. 397-403] served as the source of NK-cells.
(§2) Animals were divided into four groups, each including 36 mice. • Group 1 - intact animals not subjected to stress and given normal saline (NS). • Group 2 - animals which ere subjected to stress effect and given NS. • Group 3 - animals which were subjected to stress effect and administered compound III. • Group 4 - animals which were subjected to stress effect and administered compound XLIV.
(§3) Activity of NK-cells and interferon state were dynamically determined in 4 hours following stress, in 24 hours and then by days 5, 7 and 10.

[6] = test system: γ-interferon; experiment: γ-interferon production by splenocytes after stress; type: in vivo, Balb male mice; conditions: 50 µg/kg orally
Protocol: as §1
In studying interferon reaction of mouse splenocytes spleen cells were placed into incubation medium (the RPMI-1640 medium + 10% fetal calf serum), their concentration was brought to 1-3 x 10^8 cells/ml and they were incubated at 37°C for 24 hours. Newcasle disease virus (α-interferon induction) and FGA mitogen (γ-interferon induction) were used as intereferon inducers [Nossik N.N., Bopegamage S.A., Yershov F.I. Properties of interferons produced by different cell populations. Acta microbiologica Hungarica (1988), Vol. 35, Iss. 4, pp. 397-403].
as §2, §3

[7] = Day 1 following infection, regimen -3..3

O=C(O)CCCC(=O)NCCc1c[nH]cn1 [compound III, N-GLUTARYLHISTAMINE]
Percent of the reaction inhibition ([1]; 50 µg/kg): 42%
Reaction intensity, mm^2 ([1]; 50 µg/kg): 51.6 ± 17.1*^2 mm^2
Percent of the reaction inhibition ([1]; 150 µg/kg): 34.3%
Reaction intensity, mm^2 ([1]; 150 µg/kg): 53.7 ± 10.1*^1 mm^2
Percent of the reaction inhibition ([1]; 500 µg/kg): 30.0%
Reaction intensity, mm^2 ([1]; 500 µg/kg): 57.2 ± 12.6*^1 mm^2
Hexenal sleep duration (minutes) ([2]; CBF1 mice, oral 3 days, 50 µg/kg, control 25.91 ± 1.57): 19.61 ± 2.69** minutes
Hexenal sleep duration (minutes) ([2]; CBF1 mice, oral 3 days, 500 µg/kg, control 25.91 ± 1.57): 22.02 ± 1.45 * minutes
Mean number of metastases ([3]; 50 µg/kg): 38.5 ±6.3**^1
Mean number of metastases ([3]; 500 µg/kg): 30.1 ± 2.7**^1
Metastasizing inhibition percent ([3]; 50 µg/kg): 26.0%
Metastasizing inhibition percent ([3]; 500 µg/kg): 42.0%
Number of dead mice [4, 7]: 1
Number of dead mice ([4]; Day 2 following infection): 1*^1
Number of dead mice ([4]; Day 3 following infection): 1
Number of dead mice ([4]; Day 4 following infection): 2
Number of dead mice ([4]; Day 5 following infection): 1
Number of dead mice ([4]; Day 6 following infection): 2
Number of dead mice ([4]; Day 7 following infection): 2
MLT [4]: 4.5 ± 0.65 days
activity of NK-cells ([5]; 0.16 days after stress): 68.5 ± 0.99*^1,2
activity of NK-cells ([5]; 1 day after stress): 69.3 ± 1.81***^2
activity of NK-cells ([5]; 5 days after stress): 79 ± 1.46
activity of NK-cells ([5]; 7 days after stress): 69.3 ± 4.85
activity of NK-cells ([5]; 10 days after stress): 77 ± 1.98
γ-interferon, U/ml ([6]; 0 days after stress): 80 U/ml
γ-interferon, U/ml ([6]; 0.16 days after stress): 80 U/ml
γ-interferon, U/ml ([6]; 1 day after stress): 32 U/ml
γ-interferon, U/ml ([6]; 5 days after stress): 32 U/ml
γ-interferon, U/ml ([6]; 7 days after stress): 320 U/ml
γ-interferon, U/ml ([6]; 10 days after stress): 80 U/ml

γ-L-glutamylhistamine [compound XLIV]
Percent of the reaction inhibition ([1]; 50 µg/kg): 50%
Reaction intensity, mm^2 ([1]; 50 µg/kg): 44.6 ± 11.6 mm^2
Hexenal sleep duration ([2]; BALB/c*h75 mice, oral 3 days, 50 µg/kg, control 29.16 ± 5.68): 26.50 ± 3.49 min
Hexenal sleep duration (minutes) ([2]; BALB/c*h75 mice, oral 3 days, 500 µg/kg, control 29.16 ± 5.68): 16.72 ± 1.27*** minutes
Hexenal sleep duration (minutes) ([2]; BDF1 mice, oral 3 days, 500 µg/kg, control 23.78 ± 0.78): 20.33 ± 0.59* minutes
Hexenal sleep duration (minutes) ([2]; mouse, in vivo, po): 17.98 ± 1.66* minutes and 16.13 ± 1.86** minutes
Mean number of metastases ([3]; 50 µg/kg): 42.4 ± 4.5
Mean number of metastases ([3]; 500 µg/kg): 31.9 ± 3.8*^2
Metastasizing inhibition percent ([3]; 50 µg/kg): 10.0%
Metastasizing inhibition percent ([3]; 500 µg/kg): 32.0%
Number of dead mice [4, 7]: 3*^2
Number of dead mice ([4]; Day 3 following infection): 1
Number of dead mice ([4]; Day 5 following infection): 5
Number of dead mice ([4]; Day 6 following infection): 2
Number of dead mice ([4]; Day 7 following infection): 1
MLT [4]: 4.0 ± 0.73 days
activity of NK-cells ([5]; 0.16 days after stress): 69.5 ± 1.32**^2
activity of NK-cells ([5]; 1 day after stress): 61.5 ± 2.64*^1,2
activity of NK-cells ([5]; 5 days after stress): 71 ± 0.82
activity of NK-cells ([5]; 7 days after stress): 67.7 ± 3.95
activity of NK-cells ([5]; 10 days after stress): 77.5 ± 1.65
γ-interferon, U/ml ([6]; 0 days after stress): 80 U/ml
γ-interferon, U/ml ([6]; 0.16 days after stress): 20 U/ml
γ-interferon, U/ml ([6]; 1 day after stress): 320 U/ml
γ-interferon, U/ml ([6]; 5 days after stress): 40 U/ml
γ-interferon, U/ml ([6]; 7 days after stress): 32 U/ml
γ-interferon, U/ml ([6]; 10 days after stress): 32 U/ml

From patent publication EP2229935A1, “Peptide derivatives or pharmaceutically acceptable salts thereof, method for producing the same, use of said derivatives and pharmaceutical composition” (Nebolsin, Vladimir Evgenievich, priority 1997, dated 1999)
